{"source": "paper PMC5218480", "about": "(PLoS ONE, 2017)", "test_system": "MV-4-11 cells", "experiment": "Gene expression microarray analysis (Affymetrix PrimeView) and GSEA", "assay_type": "cell-based, human", "set-up": "RFU PODN (11730768_x_at) / Fold change /veh PODN (11730768_x_at) / RFU LINC00158 (11744669_a_at) / Fold change /veh LINC00158 (11744669_a_at) / RFU DUSP10 (11751237_a_at) / Fold change /veh DUSP10 (11751237_a_at) / RFU ID3 (11757404_x_at) / Fold change /veh ID3 (11757404_x_at) / RFU PLEKHG5 (11737974_s_at) / Fold change /veh PLEKHG5 (11737974_s_at) / RFU LRRC4B (11730491_at) / Fold change /veh LRRC4B (11730491_at) / RFU GIMAP4 (11747438_a_at) / Fold change /veh GIMAP4 (11747438_a_at) / RFU KRT8 (11758183_x_at) / Fold change /veh KRT8 (11758183_x_at) / RFU CNN1 (11734310_a_at) / Fold change /veh CNN1 (11734310_a_at) / RFU VPS37D (11726825_at) / Fold change /veh VPS37D (11726825_at) / RFU C10orf10 (11716522_x_at) / Fold change /veh C10orf10 (11716522_x_at) / RFU KIR2DL2 /// KIR2DL4 /// KIR2DL5A /// KIR2DL5B /// KIR2DS1 /// KIR2DS2 /// KIR2DS3 /// KIR2DS4 /// KIR3DL3 /// KIR3DL3 /// KIR3DS1 (11738374_at) / Fold change /veh KIR2DL2 /// KIR2DL4 /// KIR2DL5A /// KIR2DL5B /// KIR2DS1 /// KIR2DS2 /// KIR2DS3 /// KIR2DS4 /// KIR3DL3 /// KIR3DL3 /// KIR3DS1 (11738374_at) / RFU C1QL1 (11718748_at) / Fold change /veh C1QL1 (11718748_at) / RFU TMPRSS4 (11747572_a_at) / Fold change /veh TMPRSS4 (11747572_a_at) / RFU HAMP (11756126_x_at) / Fold change /veh HAMP (11756126_x_at) / RFU RNFT2 (11725882_a_at) / Fold change /veh RNFT2 (11725882_a_at) / RFU NR4A2 (11747474_a_at) / Fold change /veh NR4A2 (11747474_a_at) / RFU ABCC12 (11746883_a_at) / Fold change /veh ABCC12 (11746883_a_at) / RFU TMEM136 (11760407_x_at) / Fold change /veh TMEM136 (11760407_x_at) / RFU CLDN22 /// WWC2 (11732394_at) / Fold change /veh CLDN22 /// WWC2 (11732394_at) / RFU HLA-DPB1 (11760878_x_at) / Fold change /veh HLA-DPB1 (11760878_x_at) / RFU SPINT1 (11716480_a_at) / Fold change /veh SPINT1 (11716480_a_at) / RFU GAP43 (11754022_s_at) / Fold change /veh GAP43 (11754022_s_at) / RFU A4GNT (11735810_at) / Fold change /veh A4GNT (11735810_at) / RFU PRB3 (11715151_x_at) / Fold change /veh PRB3 (11715151_x_at) / RFU TUBB4B (11761932_at) / Fold change /veh TUBB4B (11761932_at) / RFU CAPN14 (11732068_a_at) / Fold change /veh CAPN14 (11732068_a_at) / RFU TMCC2 (11721928_a_at) / Fold change /veh TMCC2 (11721928_a_at) / RFU IRGQ (11745062_a_at) / Fold change /veh IRGQ (11745062_a_at) / RFU FAM174B (11720279_a_at) / Fold change /veh FAM174B (11720279_a_at) / RFU TMPRSS4 (11748680_a_at) / Fold change /veh TMPRSS4 (11748680_a_at) / RFU FAM212B (11763350_a_at) / Fold change /veh FAM212B (11763350_a_at) / RFU PLEKHG5 (11743358_a_at) / Fold change /veh PLEKHG5 (11743358_a_at) / RFU ZSCAN30 (11745921_a_at) / Fold change /veh ZSCAN30 (11745921_a_at) / RFU CMKLR1 (11741424_a_at) / Fold change /veh CMKLR1 (11741424_a_at) / RFU LOC101060620 /// MAPK8IP1 (11723275_at) / Fold change /veh LOC101060620 /// MAPK8IP1 (11723275_at) / RFU SPTSSB (11747773_x_at) / Fold change /veh SPTSSB (11747773_x_at) / RFU PRSS12 (11739890_at) / Fold change /veh PRSS12 (11739890_at) / RFU BIN1 (11741810_x_at) / Fold change /veh BIN1 (11741810_x_at) / RFU WNT11 (11732464_a_at) / Fold change /veh WNT11 (11732464_a_at) / RFU C10orf10 (11716521_a_at) / Fold change /veh C10orf10 (11716521_a_at) / RFU C5orf56 (11738089_at) / Fold change /veh C5orf56 (11738089_at) / RFU CYB561 (11721691_x_at) / Fold change /veh CYB561 (11721691_x_at) / RFU ANKRD19P (11752326_a_at) / Fold change /veh ANKRD19P (11752326_a_at) / RFU OR2T12 /// OR2T33 /// OR2T8 (11738714_s_at) / Fold change /veh OR2T12 /// OR2T33 /// OR2T8 (11738714_s_at) / RFU VCAN (11748164_a_at) / Fold change /veh VCAN (11748164_a_at) / RFU JSRP1 (11732532_at) / Fold change /veh JSRP1 (11732532_at) / RFU KRTAP10-11 (11738290_x_at) / Fold change /veh KRTAP10-11 (11738290_x_at) / RFU MYO3A (11730013_a_at) / Fold change /veh MYO3A (11730013_a_at) / RFU EBF3 (11725865_a_at) / Fold change /veh EBF3 (11725865_a_at) / RFU CAMK2N1 (11719241_x_at) / Fold change /veh CAMK2N1 (11719241_x_at) / RFU C5orf56 (11738088_a_at) / Fold change /veh C5orf56 (11738088_a_at) / RFU OLFML3 (11715873_a_at) / Fold change /veh OLFML3 (11715873_a_at) / RFU LOC100653217 /// NTM (11731650_a_at) / Fold change /veh LOC100653217 /// NTM (11731650_a_at) / RFU MAPK11 (11762145_a_at) / Fold change /veh MAPK11 (11762145_a_at) / RFU FIZ1 (11724087_x_at) / Fold change /veh FIZ1 (11724087_x_at) / RFU OASL (11726364_x_at) / Fold change /veh OASL (11726364_x_at) / RFU SOX15 (11748057_x_at) / Fold change /veh SOX15 (11748057_x_at) / RFU CD79A (11719716_a_at) / Fold change /veh CD79A (11719716_a_at) / RFU HIST1H1D (11736915_at) / Fold change /veh HIST1H1D (11736915_at) / RFU CASKIN2 (11723855_a_at) / Fold change /veh CASKIN2 (11723855_a_at) / RFU LOC730098 (11760151_x_at) / Fold change /veh LOC730098 (11760151_x_at) / RFU OR4N2 (11742367_at) / Fold change /veh OR4N2 (11742367_at) / RFU PRRT2 (11749266_a_at) / Fold change /veh PRRT2 (11749266_a_at) / RFU SNX32 (11753110_a_at) / Fold change /veh SNX32 (11753110_a_at) / RFU CDHR5 (11726645_a_at) / Fold change /veh CDHR5 (11726645_a_at) / RFU RCAN1 (11760418_a_at) / Fold change /veh RCAN1 (11760418_a_at) / RFU FAM167A (11723789_a_at) / Fold change /veh FAM167A (11723789_a_at) / RFU FAM26E (11764081_at) / Fold change /veh FAM26E (11764081_at) / RFU ISYNA1 (11749810_s_at) / Fold change /veh ISYNA1 (11749810_s_at) / RFU ACY1 (11761880_at) / Fold change /veh ACY1 (11761880_at) / RFU 11764098_at / Fold change /veh 11764098_at / RFU SAMD14 (11745864_x_at) / Fold change /veh SAMD14 (11745864_x_at) / RFU NPB (11741838_a_at) / Fold change /veh NPB (11741838_a_at) / RFU TMPRSS6 (11731388_a_at) / Fold change /veh TMPRSS6 (11731388_a_at) / RFU KRTAP10-2 (11738614_at) / Fold change /veh KRTAP10-2 (11738614_at) / RFU ARHGAP8 /// PRR5-ARHGAP8 (11727945_x_at) / Fold change /veh ARHGAP8 /// PRR5-ARHGAP8 (11727945_x_at) / RFU KRTAP5-7 /// NADSYN1 (11734609_at) / Fold change /veh KRTAP5-7 /// NADSYN1 (11734609_at) / RFU RASL12 (11751679_a_at) / Fold change /veh RASL12 (11751679_a_at) / RFU CDKN2B (11736163_a_at) / Fold change /veh CDKN2B (11736163_a_at) / RFU PRF1 (11729649_at) / Fold change /veh PRF1 (11729649_at) / RFU, ZNF638 /// ZNF638-IT1 / Fold change vs veh, ZNF638 /// ZNF638-IT1 / RFU, PANK3 / Fold change vs veh, PANK3 / RFU, SH3YL1 / Fold change vs veh, SH3YL1 / RFU, ZEB2 / Fold change vs veh, ZEB2 / RFU, NRIP1 / Fold change vs veh, NRIP1 / RFU, PTTG1IP / Fold change vs veh, PTTG1IP / RFU, CAPN2 / Fold change vs veh, CAPN2 / RFU, MED14 / Fold change vs veh, MED14 / RFU, SNORA58 / Fold change vs veh, SNORA58 / RFU, C1orf63 / Fold change vs veh, C1orf63 / RFU, LRRFIP1 / Fold change vs veh, LRRFIP1 / RFU, NDUFAF7 / Fold change vs veh, NDUFAF7 / RFU, SLC12A2 / Fold change vs veh, SLC12A2 / RFU, IBTK / Fold change vs veh, IBTK / RFU, ESF1 / Fold change vs veh, ESF1 / Fold change vs veh, TMEM50B / RFU, TAOK1 / Fold change vs veh, TAOK1 / RFU, ACBD3 / Fold change vs veh, ACBD3 / RFU, TMA16 / Fold change vs veh, TMA16 / RFU, RWDD3 / Fold change vs veh, RWDD3 / RFU, BCAT1 / Fold change vs veh, BCAT1 / RFU, EDEM3 / Fold change vs veh, EDEM3 / RFU, TMEM33 / Fold change vs veh, TMEM33 / RFU, WDR75 / Fold change vs veh, WDR75 / RFU, AHCTF1 / Fold change vs veh, AHCTF1 / RFU, TFRC / Fold change vs veh, TFRC / RFU, ZDHHC17 / Fold change vs veh, ZDHHC17 / RFU, NOM1 / Fold change vs veh, NOM1 / RFU, ARL8B / Fold change vs veh, ARL8B / RFU, ZBTB11 / Fold change vs veh, ZBTB11 / RFU, TAMM41 / Fold change vs veh, TAMM41 / RFU, KIAA1704 /// LOC100996395 / Fold change vs veh, KIAA1704 /// LOC100996395 / RFU, ING1 / Fold change vs veh, ING1 / RFU, TRMT61B / Fold change vs veh, TRMT61B / RFU, FUBP3 / Fold change vs veh, FUBP3 / RFU, TP53 / Fold change vs veh, TP53 / RFU, TNKS2 / Fold change vs veh, TNKS2 / RFU, ZFP14 / Fold change vs veh, ZFP14 / RFU, ACTR2 / Fold change vs veh, ACTR2 / RFU, PPP3R1 / Fold change vs veh, PPP3R1 / RFU, PIK3R1 / Fold change vs veh, PIK3R1 / RFU, HNRNPA1 / Fold change vs veh, HNRNPA1 / RFU, RNF170 / Fold change vs veh, RNF170 / RFU, ZNF28 / Fold change vs veh, ZNF28 / RFU, RNGTT / Fold change vs veh, RNGTT / RFU, OGT / Fold change vs veh, OGT / RFU, BRD1 / Fold change vs veh, BRD1 / RFU, MARS / Fold change vs veh, MARS / RFU, ZNF655 / Fold change vs veh, ZNF655 / RFU, FAHD1 / Fold change vs veh, FAHD1 / RFU, BDP1 / Fold change vs veh, BDP1 / RFU, LRRCC1 / Fold change vs veh, LRRCC1 / RFU, ARID1A / Fold change vs veh, ARID1A / RFU, ZNF146 / Fold change vs veh, ZNF146 / RFU, ZNF330 / Fold change vs veh, ZNF330 / RFU, GPN3 / Fold change vs veh, GPN3 / RFU, C9orf123 / Fold change vs veh, C9orf123 / RFU, N4BP2L2 / Fold change vs veh, N4BP2L2 / RFU, ARFIP1 / Fold change vs veh, ARFIP1 / RFU, FAM179B / Fold change vs veh, FAM179B / RFU, BCL10 / Fold change vs veh, BCL10 / RFU, UHRF1BP1L / Fold change vs veh, UHRF1BP1L / RFU, BET1 / Fold change vs veh, BET1 / RFU, CNOT2 / Fold change vs veh, CNOT2 / RFU, ZNF268 / Fold change vs veh, ZNF268 / Fold change vs veh, ZNF507 / RFU, DGCR2 / Fold change vs veh, DGCR2 / RFU, WDSUB1 / Fold change vs veh, WDSUB1 / Fold change vs veh, HSP90B1 /// MIR3652 / RFU, ADSS / Fold change vs veh, ADSS / RFU, GK / Fold change vs veh, GK / RFU, ZNF148 / Fold change vs veh, ZNF148 / RFU, TAF9 / Fold change vs veh, TAF9 / RFU, SLC1A5 / Fold change vs veh, SLC1A5 / RFU, SLMO2 / Fold change vs veh, SLMO2 / RFU, ABCC4 / Fold change vs veh, ABCC4 / RFU, LOC101060439 /// RAP1B / Fold change vs veh, LOC101060439 /// RAP1B / RFU, RFX7 / Fold change vs veh, RFX7 / RFU, GTPBP10 / Fold change vs veh, GTPBP10 / RFU, CNEP1R1 / Fold change vs veh, CNEP1R1 / RFU, BIVM-ERCC5 /// ERCC5 / Fold change vs veh, BIVM-ERCC5 /// ERCC5 / RFU, ILF3 / Fold change vs veh, ILF3 / RFU 11762660_at / Fold change /veh 11762660_at / RFU VCAN (11757783_s_at) / Fold change /veh VCAN (11757783_s_at) / RFU DDX43 (11728927_at) / Fold change /veh DDX43 (11728927_at) / RFU KRT8 (11758188_x_at) / Fold change /veh KRT8 (11758188_x_at) / RFU NKD1 (11759106_at) / Fold change /veh NKD1 (11759106_at) / RFU SRD5A1 (11742802_a_at) / Fold change /veh SRD5A1 (11742802_a_at) / RFU TPSAB1 /// TPSB2 (11721975_s_at) / Fold change /veh TPSAB1 /// TPSB2 (11721975_s_at) / RFU GSTM3 (11746129_a_at) / Fold change /veh GSTM3 (11746129_a_at) / RFU IL23R (11737362_x_at) / Fold change /veh IL23R (11737362_x_at) / RFU TMEM51 (11727254_a_at) / Fold change /veh TMEM51 (11727254_a_at) / RFU PIWIL2 (11732686_x_at) / Fold change /veh PIWIL2 (11732686_x_at) / RFU ORM1 (11744905_x_at) / Fold change /veh ORM1 (11744905_x_at) / RFU CCDC152 (11743942_at) / Fold change /veh CCDC152 (11743942_at) / RFU ECM1 (11717891_a_at) / Fold change /veh ECM1 (11717891_a_at) / RFU IL23R (11748794_a_at) / Fold change /veh IL23R (11748794_a_at) / RFU TNFAIP8L3 (11732012_x_at) / Fold change /veh TNFAIP8L3 (11732012_x_at) / RFU MBOAT4 (11741988_at) / Fold change /veh MBOAT4 (11741988_at) / RFU 11764193_at / Fold change /veh 11764193_at / RFU TMEM53 (11763286_at) / Fold change /veh TMEM53 (11763286_at) / RFU MAGEB2 (11727129_at) / Fold change /veh MAGEB2 (11727129_at) / RFU TMEM200A (11744735_a_at) / Fold change /veh TMEM200A (11744735_a_at) / RFU CCDC152 (11751479_a_at) / Fold change /veh CCDC152 (11751479_a_at) / RFU FAM211A (11726209_a_at) / Fold change /veh FAM211A (11726209_a_at) / RFU RGS16 (11746705_a_at) / Fold change /veh RGS16 (11746705_a_at) / RFU VCAN (11755009_s_at) / Fold change /veh VCAN (11755009_s_at) / RFU RHOB (11743442_s_at) / Fold change /veh RHOB (11743442_s_at) / RFU RGS16 (11720943_a_at) / Fold change /veh RGS16 (11720943_a_at) / RFU RGS16 (11720944_at) / Fold change /veh RGS16 (11720944_at) / RFU, VPS4B / Fold change vs veh, VPS4B / RFU, CREB1 / Fold change vs veh, CREB1 / RFU, DNAJC13 / Fold change vs veh, DNAJC13 / RFU, GNAQ / Fold change vs veh, GNAQ / RFU, CDK5R1 / Fold change vs veh, CDK5R1 / RFU, ZRANB3 / Fold change vs veh, ZRANB3 / RFU, CUL4A / Fold change vs veh, CUL4A / RFU, CCNY / Fold change vs veh, CCNY / RFU, UFL1 / Fold change vs veh, UFL1 / RFU, COG3 / Fold change vs veh, COG3 / RFU, DIAPH2 / Fold change vs veh, DIAPH2 / RFU, SKA2 / Fold change vs veh, SKA2 / RFU, AFF3 / Fold change vs veh, AFF3 / RFU, LMF1 / Fold change vs veh, LMF1 / RFU, IPO11 / Fold change vs veh, IPO11 / RFU, DFFB / Fold change vs veh, DFFB / RFU, FOXP1 / Fold change vs veh, FOXP1 / RFU, CARD8 / Fold change vs veh, CARD8 / RFU, STRN3 / Fold change vs veh, STRN3 / RFU, ADK / Fold change vs veh, ADK / RFU, RASSF2 / Fold change vs veh, RASSF2 / RFU, WIPF1 / Fold change vs veh, WIPF1 / RFU, LARP1B / Fold change vs veh, LARP1B / RFU, RASA1 / Fold change vs veh, RASA1 / RFU, RB1 / Fold change vs veh, RB1 / RFU, PPFIA1 / Fold change vs veh, PPFIA1 / RFU, MAT2A / Fold change vs veh, MAT2A / RFU, CCT5 / Fold change vs veh, CCT5 / RFU, WDR92 / Fold change vs veh, WDR92 / RFU, CUX1 / Fold change vs veh, CUX1 / RFU, TTC7A / Fold change vs veh, TTC7A / RFU, TMEM135 / Fold change vs veh, TMEM135 / RFU, DEPTOR / Fold change vs veh, DEPTOR / RFU, CPM / Fold change vs veh, CPM / RFU, DNAJB6 / Fold change vs veh, DNAJB6 / RFU, CACNA2D3 / Fold change vs veh, CACNA2D3 / RFU, DTX4 / Fold change vs veh, DTX4 / RFU, TFCP2 / Fold change vs veh, TFCP2 / RFU, GMCL1 /// GMCL1P1 / Fold change vs veh, GMCL1 /// GMCL1P1 / RFU, AEBP2 / Fold change vs veh, AEBP2 / RFU, SNHG1 /// SNORD22 /// SNORD25 /// SNORD26 /// SNORD27 /// SNORD28 /// SNORD29 /// SNORD31 / Fold change vs veh, SNHG1 /// SNORD22 /// SNORD25 /// SNORD26 /// SNORD27 /// SNORD28 /// SNORD29 /// SNORD31 / Fold change (Aza/veh), C12orf56 (ProbeSet 11735607_a_at) / Fold change (ACY-1035/veh), C12orf56 (ProbeSet 11735607_a_at) / Fold change (Aza/veh), FGFR1OP (ProbeSet 11751329_s_at) / Fold change (ACY-1035/veh), FGFR1OP (ProbeSet 11751329_s_at) / Fold change (Aza/veh), VPS36 (ProbeSet 11739960_a_at) / Fold change (ACY-1035/veh), VPS36 (ProbeSet 11739960_a_at) / RFU SYPL1 (11715823_x_at) / Fold change /veh SYPL1 (11715823_x_at) / RFU IGFBP7 (11715501_s_at) / Fold change /veh IGFBP7 (11715501_s_at) / RFU REEP3 (11722064_at) / Fold change /veh REEP3 (11722064_at) / RFU IGLL1 (11728026_x_at) / Fold change /veh IGLL1 (11728026_x_at): dose or concentration left out as unconfirmed", "details": "MV-4-11 cells, 48 hours"}
{"smiles": "Nc1ncn([C@@H]2O[C@H](CO)[C@@H](O)[C@H]2O)c(=O)n1", "note": "[azacitidine]", "values": [{"measurement": "Fold change /veh PODN (11730768_x_at)", "value": 1.12}]}
